According to patent publication US20260098017A1, “NOVEL AROMATIC RING DERIVATIVE CONTAINING AMIDE SUBSTITUTION AND USE THEREOF” (TIANJIN PHARMACEUTICAL BIOTECHNOLOGY CO., LTD., priority 2022, published 2026):

Target: Ba/F3 cell line expressing TYK2 (Homo sapiens, UniProt P29597, cells depend on it, form not given)
Assay: In vitro cellular inhibition assay (Ba/F3 cell proliferation, CellTiter-Glo)
Assay type: cell-based
Conditions: read-out: IC50 (the source's name)
Method: The inhibitory effect of the compounds of formula (I) according to the present invention on the TYK2 signaling pathway in cells was assessed using the following method:
Instrumentation: SpectraMax Paradigm reader.
Method: in this experiment, a Ba/F3 cell line expressing TYK2 was employed to assess the effect of the compounds on cell proliferation inhibition by measuring their effects on cell activity in vitro.
Procedure: a CellTiter-Glo buffer was thawed and placed aside till room temperature. A CellTiter-Glo substrate was placed aside till room temperature and dissolved with the buffer to prepare a CellTiter-Glo working solution. To a 96-well flat bottom transparent drug plate, 98 μL of cell culture medium and 2 μL of gradient diluted compound solution were added. The drug plate was placed aside for 10 min, and then 50 μL of the CellTiter-Glo working solution was added. The drug plate was subsequently shaken on an orbital shaker for 2 min and placed aside at room temperature for an additional 10 min. Finally, the luminescence signal was measured on the SpectraMax Paradigm reader.
Data Analysis: the cell proliferation inhibition rate data were processed using the following formula:
Inhibition Rate (Inh %)=100−(RLUDrug−RLUMin)/(RLUMax−RLUMin)×100%.
The inhibition rates of compounds with different concentrations were calculated in EXCEL, and then GraphPad Prism software was employed to plot inhibition rate curve and calculate relevant parameters, including maximum and minimum cell inhibition rates, IC50 values.

SMILES | GI50
[2H]C([2H])([2H])NC(=O)c1nnc(NC(=O)C2CC2)cc1Nc1cccc(C(=O)Nc2ccccc2)c1OC [Example 1] | 5 to 10 nM
[2H]C([2H])([2H])NC(=O)c1nnc(NC(=O)C2CC2)cc1Nc1cccc(C(=O)Nc2cccc(F)c2)c1OC [Example 6] | 5 to 10 nM
[2H]C([2H])([2H])NC(=O)c1nnc(NC(=O)C2CC2)cc1Nc1cccc(C(=O)Nc2ccccc2F)c1OC [Example 7] | 5 to 10 nM
[2H]C([2H])([2H])NC(=O)c1nnc(NC(=O)C2CC2)cc1Nc1cccc(C(=O)Nc2cccc(C)c2C)c1OC [Example 8] | 5 to 10 nM
[2H]C([2H])([2H])NC(=O)c1nnc(NC(=O)C2CC2)cc1Nc1cccc(C(=O)Nc2cc(C)cc(C)c2)c1OC [Example 9] | 5 to 10 nM
[2H]C([2H])([2H])NC(=O)c1nnc(NC(=O)C2CC2)cc1Nc1cccc(C(=O)Nc2ccccc2C)c1OC [Example 10] | 5 to 10 nM
[2H]C([2H])([2H])NC(=O)c1nnc(NC(=O)C2CC2)cc1Nc1cccc(C(=O)Nc2cccc(C3CC3)c2)c1OC [Example 11] | 5 to 10 nM
[2H]C([2H])([2H])NC(=O)c1nnc(NC(=O)C2CC2)cc1Nc1cccc(C(=O)Nc2cccc(C(F)(F)F)c2)c1OC [Example 12] | 5 to 10 nM
[2H]C([2H])([2H])NC(=O)c1nnc(NC(=O)C2CC2)cc1Nc1cccc(C(=O)Nc2cccc(CC)c2)c1OC [Example 13] | 5 to 10 nM
[2H]C([2H])([2H])NC(=O)c1nnc(NC(=O)C2CC2)cc1Nc1cccc(C(=O)Nc2cccc(OC)c2)c1OC [Example 14] | 5 to 10 nM
[2H]C([2H])([2H])NC(=O)c1nnc(NC(=O)C2CC2)cc1Nc1cccc(C(=O)Nc2cccc(C#N)c2)c1OC [Example 15] | 5 to 10 nM
[2H]C([2H])([2H])NC(=O)c1nnc(NC(=O)C2CC2)cc1Nc1cccc(C(=O)Nc2cccc(C(C)C)c2)c1OC [Example 16] | 5 to 10 nM
[2H]C([2H])([2H])NC(=O)c1nnc(NC(=O)C2CC2)cc1Nc1cccc(C(=O)Nc2cccc(C(C)(C)C)c2)c1OC [Example 17] | 5 to 10 nM
[2H]C([2H])([2H])NC(=O)c1nnc(NC(=O)C2CC2)cc1Nc1cccc(C(=O)Nc2ccc(CC)cc2)c1OC [Example 18] | 5 to 10 nM
[2H]C([2H])([2H])NC(=O)c1nnc(NC(=O)C2CC2)cc1Nc1cccc(C(=O)Nc2ccc(C3CC3)cc2)c1OC [Example 19] | 5 to 10 nM
[2H]C([2H])([2H])NC(=O)c1nnc(NC(=O)C2CC2)cc1Nc1cccc(C(=O)Nc2ccc(C(C)C)cc2)c1OC [Example 20] | 5 to 10 nM
[2H]C([2H])([2H])NC(=O)c1nnc(NC(=O)C2CC2)cc1Nc1cccc(C(=O)Nc2ccc(C(C)(C)C)cc2)c1OC [Example 21] | 5 to 10 nM
[2H]C([2H])([2H])NC(=O)c1nnc(NC(=O)C2CC2)cc1Nc1cccc(C(=O)Nc2ccc(C(F)(F)F)cc2)c1OC [Example 22] | 5 to 10 nM
[2H]C([2H])([2H])NC(=O)c1nnc(NC(=O)C2CC2)cc1Nc1cccc(C(=O)Nc2ccc(C#N)cc2)c1OC [Example 23] | 5 to 10 nM
[2H]C([2H])([2H])NC(=O)c1nnc(NC(=O)C2CC2)cc1Nc1cccc(C(=O)Nc2ccc(OC)cc2)c1OC [Example 24] | 5 to 10 nM

SMILES | GI50
[2H]C([2H])([2H])NC(=O)c1nnc(NC(=O)C2CC2)cc1Nc1cccc(C(=O)Nc2ccc(CC)c(C)c2)c1OC [Example 25] | 5 to 10 nM
[2H]C([2H])([2H])NC(=O)c1nnc(NC(=O)C2CC2)cc1Nc1cccc(C(=O)Nc2ccc(C3CC3)c(C)c2)c1OC [Example 26] | 5 to 10 nM
[2H]C([2H])([2H])NC(=O)c1nnc(NC(=O)C2CC2)cc1Nc1cccc(C(=O)Nc2ccc(C(C)C)c(C)c2)c1OC [Example 27] | 5 to 10 nM
[2H]C([2H])([2H])NC(=O)c1nnc(NC(=O)C2CC2)cc1Nc1cccc(C(=O)Nc2ccc(C(C)(C)C)c(C)c2)c1OC [Example 28] | 5 to 10 nM
[2H]C([2H])([2H])NC(=O)c1nnc(NC(=O)C2CC2)cc1Nc1cccc(C(=O)Nc2ccc(C(F)(F)F)c(C)c2)c1OC [Example 29] | 5 to 10 nM
[2H]C([2H])([2H])NC(=O)c1nnc(NC(=O)C2CC2)cc1Nc1cccc(C(=O)Nc2ccc(C#N)c(C)c2)c1OC [Example 30] | 5 to 10 nM
[2H]C([2H])([2H])NC(=O)c1nnc(NC(=O)C2CC2)cc1Nc1cccc(C(=O)Nc2ccc(OC)c(C)c2)c1OC [Example 31] | 5 to 10 nM
[2H]C([2H])([2H])NC(=O)c1nnc(NC(=O)C2CC2)cc1Nc1cccc(C(=O)Nc2ccc(F)c(C)c2)c1OC [Example 32] | 5 to 10 nM
[2H]C([2H])([2H])NC(=O)c1nnc(NC(=O)C2CC2)cc1Nc1cccc(C(=O)Nc2ccn(C)n2)c1OC [Example 33] | 5 to 10 nM
[2H]C([2H])([2H])NC(=O)c1nnc(NC(=O)C2CC2)cc1Nc1cccc(C(=O)Nc2cn(C)cn2)c1OC [Example 35] | 5 to 10 nM
[2H]C([2H])([2H])NC(=O)c1nnc(NC(=O)C2CC2)cc1Nc1cccc(C(=O)Nc2ncn(C)n2)c1OC [Example 36] | 5 to 10 nM
[2H]C([2H])([2H])NC(=O)c1nnc(NC(=O)C2CC2)cc1Nc1cccc(C(=O)Nc2cc(C)ccn2)c1OC [Example 37] | 5 to 10 nM
[2H]C([2H])([2H])NC(=O)c1nnc(NC(=O)C2CC2)cc1Nc1cccc(C(=O)Nc2ccnc(C)c2)c1OC [Example 39] | 5 to 10 nM
[2H]C([2H])([2H])NC(=O)c1nnc(NC(=O)C2CC2)cc1Nc1cccc(C(=O)Nc2cccc(C)n2)c1OC [Example 40] | 5 to 10 nM
[2H]C([2H])([2H])NC(=O)c1nnc(NC(=O)C2CC2)cc1Nc1cccc(C(=O)Nc2ncc(F)cn2)c1OC [Example 41] | 5 to 10 nM
[2H]C([2H])([2H])NC(=O)c1nnc(NC(=O)C2CC2)cc1Nc1cccc(C(=O)Nc2ccc(C)cn2)c1OC [Example 43] | 5 to 10 nM
[2H]C([2H])([2H])NC(=O)c1nnc(NC(=O)C2CC2)cc1Nc1cccc(C(=O)Nc2ccc(C)nc2)c1OC [Example 44] | 5 to 10 nM
[2H]C([2H])([2H])NC(=O)c1nnc(NC(=O)C2CC2)cc1Nc1cccc(C(=O)Nc2ncc(C)cn2)c1OC [Example 45] | 5 to 10 nM
[2H]C([2H])([2H])NC(=O)c1nnc(NC(=O)C2CC2)cc1Nc1cccc(C(=O)Nc2ccc(F)nc2)c1OC [Example 46] | 5 to 10 nM
[2H]C([2H])([2H])NC(=O)c1nnc(NC(=O)C2CC2)cc1Nc1cccc(C(=O)Nc2cnc(F)nc2)c1OC [Example 47] | 5 to 10 nM

SMILES | GI50
[2H]C([2H])([2H])NC(=O)c1nnc(NC(=O)C2CC2)cc1Nc1cccc(C(=O)Nc2ccccn2)c1OC [Example 48] | 5 to 10 nM
[2H]C([2H])([2H])NC(=O)c1nnc(NC(=O)C2CC2)cc1Nc1cccc(C(=O)Nc2cccnc2)c1OC [Example 49] | 5 to 10 nM
[2H]C([2H])([2H])NC(=O)c1nnc(NC(=O)C2CC2)cc1Nc1cccc(C(=O)Nc2ccncc2)c1OC [Example 50] | 5 to 10 nM
[2H]C([2H])([2H])NC(=O)c1nnc(NC(=O)C2CC2)cc1Nc1cccc(C(=O)Nc2ncccn2)c1OC [Example 51] | 5 to 10 nM
[2H]C([2H])([2H])NC(=O)c1nnc(NC(=O)C2CC2)cc1Nc1cccc(C(=O)Nc2cncnc2)c1OC [Example 52] | 5 to 10 nM
[2H]C([2H])([2H])NC(=O)c1cnc(NC(=O)C2CC2)cc1Nc1cccc(C(=O)Nc2ccccc2)c1OC [Example 53] | 5 to 10 nM
[2H]C([2H])([2H])NC(=O)c1cnc(NC(=O)C2CC2)cc1Nc1cccc(C(=O)Nc2ccccc2C)c1OC [Example 56] | 5 to 10 nM
[2H]C([2H])([2H])NC(=O)c1cnc(NC(=O)C2CC2)cc1Nc1cccc(C(=O)Nc2cccc(F)c2)c1OC [Example 58] | 5 to 10 nM
[2H]C([2H])([2H])NC(=O)c1cnc(NC(=O)C2CC2)cc1Nc1cccc(C(=O)Nc2ccccc2F)c1OC [Example 59] | 5 to 10 nM
[2H]C([2H])([2H])NC(=O)c1cnc(NC(=O)C2CC2)cc1Nc1cccc(C(=O)Nc2cccc(C)c2C)c1OC [Example 60] | 5 to 10 nM
[2H]C([2H])([2H])NC(=O)c1cnc(NC(=O)C2CC2)cc1Nc1cccc(C(=O)Nc2cc(C)cc(C)c2)c1OC [Example 61] | 5 to 10 nM
[2H]C([2H])([2H])NC(=O)c1cnc(NC(=O)C2CC2)cc1Nc1cccc(C(=O)Nc2cccc(C3CC3)c2)c1OC [Example 63] | 5 to 10 nM
[2H]C([2H])([2H])NC(=O)c1cnc(NC(=O)C2CC2)cc1Nc1cccc(C(=O)Nc2cccc(C(F)(F)F)c2)c1OC [Example 64] | 5 to 10 nM
[2H]C([2H])([2H])NC(=O)c1cnc(NC(=O)C2CC2)cc1Nc1cccc(C(=O)Nc2cccc(CC)c2)c1OC [Example 65] | 5 to 10 nM
[2H]C([2H])([2H])NC(=O)c1cnc(NC(=O)C2CC2)cc1Nc1cccc(C(=O)Nc2cccc(OC)c2)c1OC [Example 66] | 5 to 10 nM
[2H]C([2H])([2H])NC(=O)c1cnc(NC(=O)C2CC2)cc1Nc1cccc(C(=O)Nc2cccc(C#N)c2)c1OC [Example 67] | 5 to 10 nM
[2H]C([2H])([2H])NC(=O)c1cnc(NC(=O)C2CC2)cc1Nc1cccc(C(=O)Nc2cccc(C(C)C)c2)c1OC [Example 68] | 5 to 10 nM
[2H]C([2H])([2H])NC(=O)c1cnc(NC(=O)C2CC2)cc1Nc1cccc(C(=O)Nc2cccc(C(C)(C)C)c2)c1OC [Example 69] | 5 to 10 nM
[2H]C([2H])([2H])NC(=O)c1cnc(NC(=O)C2CC2)cc1Nc1cccc(C(=O)Nc2ccc(CC)cc2)c1OC [Example 70] | 5 to 10 nM
